According to patent US10259810B2, “N-sulfonylated pyrazolo[3,4-b]pyridin-6-carboxamides and method of use” (AbbVie S.à.r.l., priority 2015, dated 2019):

What was measured:
ΔF508-CFTR [1] = target: T1, ΔF508-CFTR (Homo sapiens, UniProt P13569, DEL508-508); experiment: CFTR cell surface levels using HRP-tagged ΔF508-CFTR expressing CFBE cells, in the presence of a co-corrector; format: cell-based
T1 construct: host or cells: CFBE41o-, doxycycline-inducible
Procedure, shortened: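 Chemiluminescent read-out of surface HRP (15 min, dark) after PBS washes. Activity is normalized as 100×(sample−DMSO)/(3 μM co-corrector alone−DMSO).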

ΔF508-CFTR [2] = target: T1, ΔF508-CFTR; experiment: CFTR cell surface levels using HRP-tagged ΔF508-CFTR expressing CFBE cells, intrinsic corrector capacity; format: cell-based; design: % Activation: concentration or dose not given beside the values
Procedure, shortened: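 Read-out: chemiluminescent HRP activity of ECL4-HRP-tagged ΔF508-CFTR at the cell surface, 15 min substrate in dark. Normalized as 100×(sample−DMSO)/(positive control−DMSO).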

[3] = HRP-tagged ΔF508-CFTR CFBE cells, in the presence of 3 μM co-corrector
[4] = HRP-tagged ΔF508-CFTR CFBE cells, in the presence of 3 μM co-corrector, read-out: EC50
[5] = HRP-tagged ΔF508-CFTR expressing CFBE41o- cells, compound alone (intrinsic corrector capacity), 20 hours at 33° C.
[6] = HRP-tagged ΔF508-CFTR expressing CFBE41o- cells, compound alone (intrinsic corrector capacity), 20 hours at 33° C., read-out: EC50

T1 sequence (P13569 with tags, fused parts or gaps DEL508-508): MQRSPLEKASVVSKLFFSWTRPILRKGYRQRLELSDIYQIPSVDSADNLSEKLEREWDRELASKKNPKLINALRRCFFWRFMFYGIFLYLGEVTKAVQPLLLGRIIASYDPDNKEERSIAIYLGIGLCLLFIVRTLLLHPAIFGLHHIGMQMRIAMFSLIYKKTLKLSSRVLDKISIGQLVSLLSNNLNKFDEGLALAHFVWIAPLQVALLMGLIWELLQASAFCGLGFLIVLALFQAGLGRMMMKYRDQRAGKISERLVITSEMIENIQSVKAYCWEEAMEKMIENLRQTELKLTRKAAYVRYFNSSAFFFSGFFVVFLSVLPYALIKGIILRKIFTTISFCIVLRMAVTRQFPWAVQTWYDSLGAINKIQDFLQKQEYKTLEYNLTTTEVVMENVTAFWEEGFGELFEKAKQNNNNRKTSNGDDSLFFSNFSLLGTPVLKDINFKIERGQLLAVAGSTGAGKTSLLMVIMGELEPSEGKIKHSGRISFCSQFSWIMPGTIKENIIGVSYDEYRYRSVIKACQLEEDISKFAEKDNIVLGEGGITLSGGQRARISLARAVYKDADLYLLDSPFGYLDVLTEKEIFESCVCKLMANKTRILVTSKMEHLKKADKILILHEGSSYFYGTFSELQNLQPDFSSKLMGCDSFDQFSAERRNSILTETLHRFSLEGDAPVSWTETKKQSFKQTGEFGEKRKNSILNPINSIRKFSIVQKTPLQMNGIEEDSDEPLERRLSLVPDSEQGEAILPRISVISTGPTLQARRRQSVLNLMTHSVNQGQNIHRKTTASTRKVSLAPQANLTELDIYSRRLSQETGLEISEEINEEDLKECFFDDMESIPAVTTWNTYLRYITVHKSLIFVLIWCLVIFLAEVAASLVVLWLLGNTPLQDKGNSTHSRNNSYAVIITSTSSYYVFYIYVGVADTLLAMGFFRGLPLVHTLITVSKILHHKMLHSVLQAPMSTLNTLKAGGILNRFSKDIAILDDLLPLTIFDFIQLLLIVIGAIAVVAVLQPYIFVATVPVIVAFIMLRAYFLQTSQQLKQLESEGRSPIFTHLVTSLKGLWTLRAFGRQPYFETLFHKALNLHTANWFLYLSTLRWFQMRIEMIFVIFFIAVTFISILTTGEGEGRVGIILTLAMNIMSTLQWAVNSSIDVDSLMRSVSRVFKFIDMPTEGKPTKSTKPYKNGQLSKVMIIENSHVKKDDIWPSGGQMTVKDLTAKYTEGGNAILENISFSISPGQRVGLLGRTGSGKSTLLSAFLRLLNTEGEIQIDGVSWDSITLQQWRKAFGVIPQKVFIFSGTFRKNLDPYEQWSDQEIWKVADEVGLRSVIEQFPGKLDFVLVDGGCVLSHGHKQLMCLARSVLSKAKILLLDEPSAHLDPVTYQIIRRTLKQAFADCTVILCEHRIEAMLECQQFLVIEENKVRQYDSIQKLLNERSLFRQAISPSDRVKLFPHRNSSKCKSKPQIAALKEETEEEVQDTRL

Compound | % Activation (ΔF508-CFTR [1]; [3]) | EC50 (ΔF508-CFTR [1]; [4]) | % Activation (ΔF508-CFTR [2]; [5]) | EC50 (ΔF508-CFTR [2]; [6]) | EC50 (ΔF508-CFTR [1]) | EC50 (ΔF508-CFTR [2])
COC1CCN(c2cc(C(=O)NS(=O)(=O)CC(F)(F)F)nc3c2c(C2CCC2)nn3-c2ccccc2)CC1 [Compound 176, 3-cyclobutyl-4-(4-methoxypiperidin-1-yl)-1-phenyl-N-(2,2,2-trifluoroethanesulfonyl)-1H-pyrazolo[3,4-b]pyridine-6-carboxamide] | 390.43% | 209 nM | 190.4% | 337 nM |  | 
CS(=O)(=O)NC(=O)c1cc(OC[C@H](F)C2CCOCC2)c2c(C3CCC3)nn(-c3ccccc3)c2n1 [Compound 237, 3-cyclobutyl-4-[(2R)-2-fluoro-2-(oxan-4-yl)ethoxy]-N-(methanesulfonyl)-1-phenyl-1H-pyrazolo[3,4-b]pyridine-6-carboxamide] | 264.05% | 222 nM | 120% | 453 nM |  | 
CCS(=O)(=O)NC(=O)c1cc(-c2ccc(N3CCOCC3)cc2)c2c(C(C)C)nn(-c3ccc(F)c(F)c3)c2n1 [Compound 223, 1-(3,4-difluorophenyl)-N-(ethanesulfonyl)-4-[4-(morpholin-4-yl)phenyl]-3-(propan-2-yl)-1H-pyrazolo[3,4-b]pyridine-6-carboxamide] | 438.2% | 371 nM | 258.95% | 469 nM |  | 
CC(C)Oc1nn(C2CCCCC2)c2nc(C(=O)NS(C)(=O)=O)cc(-c3ccc(C(=O)N4CCC(N(C)C)CC4)cc3)c12 [Compound 544, 1-cyclohexyl-4-{4-[4-(dimethylamino)piperidine-1-carbonyl]phenyl}-N-(methanesulfonyl)-3-[(propan-2-yl)oxy]-1H-pyrazolo[3,4-b]pyridine-6-carboxamide] | 344.9% | 2000 nM | 135.3% | 3330 nM |  | 
CC(C)c1nn(C2CCCCC2)c2nc(C(=O)NS(C)(=O)=O)cc(-c3ccc(N4CCC(C)(C#N)CC4)nc3)c12 [Compound 98, 4-[6-(4-cyano-4-methylpiperidin-1-yl)pyridin-3-yl]-1-cyclohexyl-N-(methanesulfonyl)-3-(propan-2-yl)-1H-pyrazolo[3,4-b]pyridine-6-carboxamide] | 360.15% | 393 nM | 154% | 556 nM |  | 
Cc1cccc(-n2nc(C(C)C)c3c(N4CCC5(CCOCC5)C4)cc(C(=O)NS(C)(=O)=O)nc32)c1 [Compound 171, N-(methanesulfonyl)-1-(3-methylphenyl)-4-(8-oxa-2-azaspiro[4.5]decan-2-yl)-3-(propan-2-yl)-1H-pyrazolo[3,4-b]pyridine-6-carboxamide] | 289.23% | 312 nM | 143.4% | 787 nM |  | 
CCS(=O)(=O)NC(=O)c1cc(-c2ccc(N3CC(N(C)C)C3)cc2)c2c(C)nn(-c3ccccc3)c2n1 [Compound 42, 4-{4-[3-(dimethylamino)azetidin-1-yl]phenyl}-N-(ethanesulfonyl)-3-methyl-1-phenyl-1H-pyrazolo[3,4-b]pyridine-6-carboxamide] | 226.3% | 378 nM | 45.225% | 2120 nM |  | 
CC(C)c1nn(-c2ccc(F)cc2)c2nc(C(=O)NS(C)(=O)=O)cc(OCC3CCCO3)c12 (stereo not drawn) [Compound 295, 1-(4-fluorophenyl)-N-(methanesulfonyl)-4-[(oxolan-2-yl)methoxy]-3-(propan-2-yl)-1H-pyrazolo[3,4-b]pyridine-6-carboxamide] | 298.07% | 697 nM | 129.6% | 1050 nM |  | 
O=C(NS(=O)(=O)CCCN1CCOCC1)c1cc(N2CCC(N3CCCCC3)CC2)c2c(C3CCC3)nn(-c3ccccc3)c2n1 [Compound 454, 4-([1,4′-bipiperidin]-1′-yl)-3-cyclobutyl-N-[3-(morpholin-4-yl)propane-1-sulfonyl]-1-phenyl-1H-pyrazolo[3,4-b]pyridine-6-carboxamide] | 430.2% |  | 168.1% |  | 639 nM | 1670 nM
CS(=O)(=O)NC(=O)c1cc(N2CC3(CCOCC3)C2)c2c(C3CCC3)nn(-c3ccccc3)c2n1 [Compound 204, 3-cyclobutyl-N-(methanesulfonyl)-4-(7-oxa-2-azaspiro[3.5]nonan-2-yl)-1-phenyl-1H-pyrazolo[3,4-b]pyridine-6-carboxamide] | 288.6% | 490 nM | 117.6% | 978 nM |  | 
CCCN(CC)S(=O)(=O)NC(=O)c1cc(OCC2CCOCC2)c2c(C3CCC3)nn(-c3ccccc3)c2n1 [Compound 355, 3-cyclobutyl-N-[ethyl(propyl)sulfamoyl]-4-[(oxan-4-yl)methoxy]-1-phenyl-1H-pyrazolo[3,4-b]pyridine-6-carboxamide] | 278.4% | 377 nM | 102.4% | 161 nM |  | 
CN(C)S(=O)(=O)NC(=O)c1cc(-c2ccc(CN3CCOCC3)cc2)c2c(OC3CCC3)nn(C3CCCCC3)c2n1 [Compound 481, 3-(cyclobutyloxy)-1-cyclohexyl-N-(dimethylsulfamoyl)-4-{4-[(morpholin-4-yl)methyl]phenyl}-1H-pyrazolo[3,4-b]pyridine-6-carboxamide] | 285.65% | 154 nM | 114.2% | 278 nM |  | 
COCCOCC1(F)CCCN(c2cc(C(=O)NS(C)(=O)=O)nc3c2c(C2CCC2)nn3-c2ccccc2)C1 (stereo not drawn) [Compound 503, 3-cyclobutyl-4-{3-fluoro-3-[(2-methoxyethoxy)methyl]piperidin-1-yl}-N-(methanesulfonyl)-1-phenyl-1H-pyrazolo[3,4-b]pyridine-6-carboxamide] | 433.2% | 405 nM | 203.4% | 419 nM |  | 
COCC1CCN(c2cc(C(=O)NS(=O)(=O)C3CCN(C(=O)OCc4ccccc4)C3)nc3c2c(C2CCC2)nn3-c2ccccc2)CC1 (stereo not drawn) [Compound 377, benzyl 3-({3-cyclobutyl-4-[4-(methoxymethyl)piperidin-1-yl]-1-phenyl-1H-pyrazolo[3,4-b]pyridine-6-carbonyl}sulfamoyl)pyrrolidine-1-carboxylate] | 485.55% | 103 nM | 261.3% | 129 nM |  | 
CC(C)Oc1nn(C2CCCCC2)c2nc(C(=O)NS(C)(=O)=O)cc(-c3ccc(CN4CCN(C)CC45COC5)cc3)c12 [Compound 641, 1-cyclohexyl-N-(methanesulfonyl)-4-{4-[(8-methyl-2-oxa-5,8-diazaspiro[3.5]nonan-5-yl)methyl]phenyl}-3-[(propan-2-yl)oxy]-1H-pyrazolo[3,4-b]pyridine-6-carboxamide] | 443.12% | 46.3 nM | 205.35% | 74.9 nM |  | 
CC(C)c1nn(-c2cccc(N(C)C)c2)c2nc(C(=O)NS(C)(=O)=O)cc(-c3ccc(N4CCC(C#N)CC4)cc3)c12 [Compound 81, 4-[4-(4-cyanopiperidin-1-yl)phenyl]-1-[3-(dimethylamino)phenyl]-N-(methanesulfonyl)-3-(propan-2-yl)-1H-pyrazolo[3,4-b]pyridine-6-carboxamide] | 646.44% | 253 nM | 495.8% | 385 nM |  | 
CC(C)c1nn(-c2cccc(N(C)C)c2)c2nc(C(=O)NS(C)(=O)=O)cc(-c3cnc(N4CCOCC4)nc3)c12 [Compound 59, 1-[3-(dimethylamino)phenyl]-N-(methanesulfonyl)-4-[2-(morpholin-4-yl)pyrimidin-5-yl]-3-(propan-2-yl)-1H-pyrazolo[3,4-b]pyridine-6-carboxamide] | 534.8% | 482 nM | 317.3% | 777 nM |  | 
COCC1CCN(c2cc(C(=O)NS(=O)(=O)CCCO)nc3c2c(C2CCC2)nn3-c2ccc(F)cc2)CC1 [Compound 672, 3-cyclobutyl-1-(4-fluorophenyl)-N-(3-hydroxypropane-1-sulfonyl)-4-[4-(methoxymethyl)piperidin-1-yl]-1H-pyrazolo[3,4-b]pyridine-6-carboxamide] | 422.4% | 127 nM | 362.9% | 331 nM |  | 
COCC1CCN(c2cc(C(=O)NS(=O)(=O)CCNC(=O)OCc3ccccc3)nc3c2c(C2CCC2)nn3-c2ccccc2)CC1 [Compound 373, benzyl [2-({3-cyclobutyl-4-[4-(methoxymethyl)piperidin-1-yl]-1-phenyl-1H-pyrazolo[3,4-b]pyridine-6-carbonyl}sulfamoyl)ethyl]carbamate] | 580.5% | 85.8 nM | 368.2% | 73 nM |  | 
Cc1cccc(-n2nc(C3CCC3)c3c(N4CCC(N5CCOCC5)CC4)cc(C(=O)NS(C)(=O)=O)nc32)c1 [Compound 509, 3-cyclobutyl-N-(methanesulfonyl)-1-(3-methylphenyl)-4-[4-(morpholin-4-yl)piperidin-1-yl]-1H-pyrazolo[3,4-b]pyridine-6-carboxamide] | 527.9% | 118 nM | 333.2% | 327 nM |  | 
CC(C)c1nn(-c2ccccc2)c2nc(C(=O)NS(C)(=O)=O)cc(-c3cnc(N4CCOCC4)nc3)c12 [Compound 20, N-(methanesulfonyl)-4-[2-(morpholin-4-yl)pyrimidin-5-yl]-1-phenyl-3-(propan-2-yl)-1H-pyrazolo[3,4-b]pyridine-6-carboxamide] | 417.5% | 546 nM | 210.3% | 669 nM |  | 
